Literature values in patent US20120129153A1, “Diagnostic method for the prediction of the development and control of the effectiveness of the treatment of oncological illnesses” (priority 2010, published 2012).

Legend:
[1] = test system: EBV-associated nasopharyngeal carcinomas; settings: EBV-associated nasopharyngeal carcinomas in athymous mice
[2] = test system: neuroblastomal cells infected by HCMV; settings: HCMV-infected neuroblastomal cells resistant to cysplatin and etoposide; virus reproduction blocked with Ganciclovir

Compound	induction of apoptosis in EBV-transformed epithelial cells [1]	sensitivity of the cells to the action of anti-tumor drugs [2]
Nc1ccn(C[C@@H](CO)OCP(=O)(O)O)c(=O)n1 [Cidofovir, (S)-1-(3-hydroxy-2-phpsphonyl-methoxypropyl)cytosine]	causes a quick induction of apoptosis	
Nc1nc(O)c2ncn(COC(CO)CO)c2n1 [Ganciclovir]		fully restored
